From patent US8742138B2, “Compounds as hypoxia mimetics, and compositions and uses thereof” (Betta Pharmaceuticals Co., Ltd., priority 2009, dated 2014)

Target: HIF-PHD2 (Homo sapiens (Human), UniProt Q9GZT9)
Test: Assay of HIF-PHD2 Enzyme Activity (TR-FRET)
Assay type: biochemical
Conditions: 600 nM full length PHD2, 0.2 μM 2-oxoglutarate, 0.5 μM HIF-1α peptide
Procedure: HIF-PHD2 activity was measured using homogeneous TR-FRET technology (see also, US2008/004817; Dao J H et al., Anal Biochem. 2009, 384:213-23). To each well of a ½Area 96-well plate was added 2 μL of test compound in DMSO and 40 μL of assay buffer (50 mM Tris PH7.4/0.01% Tween-20/0.1 mg/ml BSA/1 mM Sodium ascorbate/20 μg/ml Catalase/10 μM FeSO4) containing 600 nM full length PHD2. After a 30 min preincubation at room temperature, the enzymatic reactions were initiated by the addition of 8 μL of substrates (final concentrations of 0.2 μM 2-oxoglutarate and 0.5 μM HIF-1α peptide biotinyl-[…]). After 2 hr at room temperature, the reactions were terminated and signals were developed by the addition of a 50 μL quench/detection mix to a final concentration of 1 mM ortho-phenanthroline, 0.1 mM EDTA, 0.5 nM anti-(His)6LANCE reagent, 100 nM AF647-labeled Streptavidin, and 30 nM (His)6-VHL-elonginB-elonginC complex. The ratio of time resolved fluorescence signals at 665 and 620 nm was determined, and percent inhibition was calculated relative to an uninhibited control sample run in parallel.

Chain of HIF-PHD2 (Q9GZT9 whole entry): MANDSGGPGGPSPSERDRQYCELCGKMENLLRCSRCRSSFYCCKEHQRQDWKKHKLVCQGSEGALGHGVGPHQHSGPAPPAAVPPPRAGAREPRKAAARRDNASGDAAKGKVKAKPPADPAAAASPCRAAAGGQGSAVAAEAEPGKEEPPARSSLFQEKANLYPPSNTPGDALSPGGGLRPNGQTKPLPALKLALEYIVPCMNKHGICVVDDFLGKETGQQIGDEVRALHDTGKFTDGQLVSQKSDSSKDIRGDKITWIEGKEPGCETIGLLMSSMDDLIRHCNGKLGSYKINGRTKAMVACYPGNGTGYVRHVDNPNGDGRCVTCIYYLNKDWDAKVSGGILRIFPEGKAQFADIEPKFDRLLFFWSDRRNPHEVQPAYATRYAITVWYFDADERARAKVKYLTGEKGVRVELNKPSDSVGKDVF

SMILES	IC50 [nM]
O=C(O)CNC(=O)c1c(O)c2ccc(-c3ccc(Cl)c(Cl)c3)cc2oc1=O [Example 9, N-[(4-hydroxy-2-oxo-7-(3,4-dichloro-phenyl)-2H-3-chromenyl)carbonyl]glycine]	150
O=C(O)CNC(=O)c1c(O)c2ccc(-c3cc(F)c(F)c(F)c3)cc2oc1=O [Example 11, N-[(4-hydroxy-2-oxo-7-(3,4,5-trifluoro-phenyl)-2H-3-chromenyl)carbonyl]glycine]	150
O=C(O)CNC(=O)c1c(O)c2ccc(-c3cccnc3)cc2oc1=O [Example 33, N-[(4-hydroxy-2-oxo-7-(pyridin-3-yl)-2H-3-chromenyl)carbonyl]glycine]	200
O=C(O)CNC(=O)c1c(O)c2ccc(-c3ccc(Cl)cc3)cc2oc1=O [Example 4, N-[(4-hydroxy-2-oxo-7-(4-chloro-phenyl)-2H-3-chromenyl)carbonyl]glycine]	150
O=C(O)CNC(=O)c1c(O)c2ccc(-c3ccccc3)cc2oc1=O [Example 1, N-[(4-hydroxy-2-oxo-7-phenyl-2H-3-chromenyl)carbonyl]glycine]	250
O=C(O)CNC(=O)c1c(O)c2ccc(-c3ccc(C(F)(F)F)cc3)cc2oc1=O [Example 6, N-[(4-hydroxy-2-oxo-7-(4-trifluoromethyl-phenyl)-2H-3-chromenyl)carbonyl]glycine]	150
O=C(O)CNC(=O)c1c(O)c2cccc(-c3ccc(C(F)(F)F)cc3)c2oc1=O [Example 21, N-[(4-hydroxy-2-oxo-8-(4-trifluoromethylphenyl)-2H-3-chromenyl)carbonyl]glycine]	90
COc1ccc(-c2ccc3c(O)c(C(=O)NCC(=O)O)c(=O)oc3c2)cc1 [Example 13, N-[(4-hydroxy-2-oxo-7-(4-methoxy-phenyl)-2H-3-chromenyl)carbonyl]glycine]	150
O=C(O)CNC(=O)c1c(O)c2ccc(-c3cccc(OC(F)(F)F)c3)cc2oc1=O [Example 7, N-[(4-hydroxy-2-oxo-7-(3-trifluoromethoxy-phenyl)-2H-3-chromenyl)carbonyl]glycine]	150
O=C(O)CNC(=O)c1c(O)c2ccc(-c3ccc(F)c(F)c3)cc2oc1=O [Example 10, N-[(4-hydroxy-2-oxo-7-(3,4-difluoro-phenyl)-2H-3-chromenyl)carbonyl]glycine]	150
Cc1ccc(-c2ccc3c(O)c(C(=O)NCC(=O)O)c(=O)oc3c2)cc1 [Example 15, N-[(4-hydroxy-2-oxo-7-(4-methylphenyl)-2H-3-chromenyl)carbonyl]glycine]	150
O=C(O)CNC(=O)c1c(O)c2cccc(-c3cccc(C(F)(F)F)c3)c2oc1=O [Example 20, N-[(4-hydroxy-2-oxo-8-(3-trifluoromethylphenyl)-2H-3-chromenyl)carbonyl]glycine]	100
COc1cccc(-c2ccc3c(O)c(C(=O)NCC(=O)O)c(=O)oc3c2)c1 [Example 12, N-[(4-hydroxy-2-oxo-7-(3-methoxy-phenyl)-2H-3-chromenyl)carbonyl]glycine]	150
O=C(O)CNC(=O)c1c(O)c2ccc(-c3ccc(OC(F)(F)F)cc3)cc2oc1=O [Example 8, N-[(4-hydroxy-2-oxo-7-(4-trifluoromethoxy-phenyl)-2H-3-chromenyl)carbonyl]glycine]	150
O=C(O)CNC(=O)c1c(O)c2ccc(-c3ccccc3Cl)cc2oc1=O [Example 2, N-[(4-hydroxy-2-oxo-7-(2-chloro-phenyl)-2H-3-chromenyl)carbonyl]glycine]	150
O=C(O)CNC(=O)c1c(O)c2ccc(Oc3ccccc3)cc2oc1=O [Example 34, N-[(4-hydroxy-2-oxo-7-phenoxy-2H-3-chromenyl)carbonyl]glycine]	150
O=C(O)CNC(=O)c1c(O)c2ccc(-c3cccc(C(F)(F)F)c3)cc2oc1=O [Example 5, N-[(4-hydroxy-2-oxo-7-(3-trifluoromethyl-phenyl)-2H-3-chromenyl)carbonyl]glycine]	150
O=C(O)CNC(=O)c1c(O)c2ccc(-c3cccc(Cl)c3)cc2oc1=O [Example 3, N-[(4-hydroxy-2-oxo-7-(3-chloro-phenyl)-2H-3-chromenyl)carbonyl]glycine]	150
O=C(O)CNC(=O)c1c(O)c2cccc(-c3cccc(OC(F)(F)F)c3)c2oc1=O [Example 22, N-[(4-hydroxy-2-oxo-8-(3-trifluoromethoxyphenyl)-2H-3-chromenyl)carbonyl]glycine]	100
Cc1cccc(-c2ccc3c(O)c(C(=O)NCC(=O)O)c(=O)oc3c2)c1 [Example 14, N-[(4-hydroxy-2-oxo-7-(3-methylphenyl)-2H-3-chromenyl)carbonyl]glycine]	300
O=C(O)CNC(=O)c1c(O)c2cccc(-c3ccc(OC(F)(F)F)cc3)c2oc1=O [Example 23, N-[(4-hydroxy-2-oxo-8-(4-trifluoromethoxyphenyl)-2H-3-chromenyl)carbonyl]glycine]	150

Results, then the molecule that gave them:

IC50 [nM]	SMILES
80	COc1ccc(-c2cccc3c(O)c(C(=O)NCC(=O)O)c(=O)oc23)cc1 [Example 28, N-[(4-hydroxy-2-oxo-8-(4-methoxyphenyl)-2H-3-chromenyl)carbonyl]glycine]
150	Cc1cccc(-c2cccc3c(O)c(C(=O)NCC(=O)O)c(=O)oc23)c1 [Example 29, N-[(4-hydroxy-2-oxo-8-(3-methylphenyl)-2H-3-chromenyl)carbonyl]glycine]
200	O=C(O)CNC(=O)c1c(O)c2cccc(-c3ccccc3Cl)c2oc1=O [Example 17, N-[(4-hydroxy-2-oxo-8-(2-chlorophenyl)-2H-3-chromenyl)carbonyl]glycine]
150	O=C(O)CNC(=O)c1c(O)c2cccc(-c3ccc(Cl)cc3)c2oc1=O [Example 19, N-[(4-hydroxy-2-oxo-8-(4-chlorophenyl)-2H-3-chromenyl)carbonyl]glycine]
150	COc1cccc(-c2cccc3c(O)c(C(=O)NCC(=O)O)c(=O)oc23)c1 [Example 27, N-[(4-hydroxy-2-oxo-8-(3-methoxyphenyl)-2H-3-chromenyl)carbonyl]glycine]
30	O=C(O)CNC(=O)c1c(O)c2cccc(-c3ccc(Cl)c(Cl)c3)c2oc1=O [Example 24, N-[(4-hydroxy-2-oxo-8-(3,4-dichlorophenyl)-2H-3-chromenyl)carbonyl]glycine]
350	O=C(O)CNC(=O)c1c(O)c2cccc(-c3ccccc3)c2oc1=O [Example 16, N-[(4-hydroxy-2-oxo-8-phenyl-2H-3-chromenyl)carbonyl]glycine]
150	O=C(O)CNC(=O)c1c(O)c2cccc(-c3cc(F)c(F)c(F)c3)c2oc1=O [Example 26, N-[(4-hydroxy-2-oxo-8-(3,4,5-trifluorophenyl)-2H-3-chromenyl)carbonyl]glycine]
150	O=C(O)CNC(=O)c1c(O)c2ccc(Br)cc2oc1=O [Example 35, N-[(4-hydroxy-2-oxo-7-bromo-3-chromenyl)carbonyl]glycine]
90	O=C(O)CNC(=O)c1c(O)c2cccc(-c3cccc(Cl)c3)c2oc1=O [Example 18, N-[(4-hydroxy-2-oxo-8-(3-chlorophenyl)-2H-3-chromenyl)carbonyl]glycine]
80	Cc1ccc(-c2cccc3c(O)c(C(=O)NCC(=O)O)c(=O)oc23)cc1 [Example 30, N-[(4-hydroxy-2-oxo-8-(4-methylphenyl)-2H-3-chromenyl)carbonyl]glycine]
700	O=C(O)CNC(=O)c1c(O)c2cc(Br)ccc2oc1=O [Example 37, N-[(4-hydroxy-2-oxo-6-bromo-3-chromenyl)carbonyl]glycine]
150	O=C(O)CNC(=O)c1c(O)c2cccc(-c3ccc(F)c(F)c3)c2oc1=O [Example 25, N-[(4-hydroxy-2-oxo-8-(3,4-difluorophenyl)-2H-3-chromenyl)carbonyl]glycine]
300	O=C(O)CNC(=O)c1c(O)c2cccc(Br)c2oc1=O [Example 36, N-[(4-hydroxy-2-oxo-8-bromo-3-chromenyl)carbonyl]glycine]
